From US20080242600A1, “Backbone Cyclized Melanocortin Stimulating Hormone (Alpha Msh) Analogs” (priority 2005, published 2008)
“Also recorded” adds a separate entry of the source. *1 amine or outer side, *2 acyl side, *3 side chain or, on linkers, in order; H or OH if unused. Where a SMILES comes first, the peptide text is derived from it. Bridges are numbered along the chain shown (N, C = ends). [ ]: non-standard residue; d: D form. NGly(3-aminopropyl) = O=C(CN(CCCN[*:3])[*:1])[*:2]; N(2-Aminoethyl)Gly = O=C(CN(CCN[*:3])[*:1])[*:2]; Heptanedioyl = O=C(CCCCCC(=O)[*:2])[*:1]; Adipoyl = O=C(CCCCC(=O)[*:2])[*:1]; Glutaryl = O=C(CCCC(=O)[*:2])[*:1]; Suc = O=C(CCC(=O)[*:2])[*:1]; Nlys = NCCCCNCC(=O)O

Assays:
MC4R [1] = target: T1, MC4R (Homo sapiens, UniProt P32245); assay: Receptor binding assay (IC50 on the MC4R)
T1 construct: expressed in transfected cells; host or cells: CHO cells
T1 sequence (P32245 whole entry, species assumed): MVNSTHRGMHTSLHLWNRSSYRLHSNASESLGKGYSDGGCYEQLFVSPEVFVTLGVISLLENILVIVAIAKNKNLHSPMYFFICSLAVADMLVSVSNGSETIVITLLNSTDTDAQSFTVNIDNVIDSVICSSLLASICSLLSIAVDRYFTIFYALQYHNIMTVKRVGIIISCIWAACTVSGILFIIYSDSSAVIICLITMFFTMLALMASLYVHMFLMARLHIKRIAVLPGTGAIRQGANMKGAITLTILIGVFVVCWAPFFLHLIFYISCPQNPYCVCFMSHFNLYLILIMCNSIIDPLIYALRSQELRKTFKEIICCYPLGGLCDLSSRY
Description: The analogs can be further tested in vitro for their influence on cyclic adenosine monophosphate (cAMP) levels. Intestinal permeability and metabolic stability of the analogs can be tested in vivo. The analogs can be further tested in vivo in preclinical models in order to identify the optimal mode of administration and proper dose, and to verify the safety and the efficacy of these new potential therapeutic drugs.
Transfected CHO cells are washed with binding buffer 8 and distributed into 96-well plates (approximately 40,000 cells/well). […] NDP-α-MSH and appropriate concentrations of an unlabelled ligand. After incubation, the cells are washed with 0.2 ml of ice-cold binding buffer and detached from the plates with 0.2 ml of 0.1 N NaOH. Radioactivity is counted (Wallac, Wizard automatic gamma counter) and data analyzed with a software package for radioligand binding analyses (Wan System, Umea, Sweden) by fitting it to formulas derived from the law of mass-action by the method generally referred to as computer modeling. The binding assays are performed in duplicate wells.

[2] = Assessment of intestinal metabolic stability in brush border membrane vesicles; format: in vitro ADME; conditions: rat intestinal brush border membranes
Experimental: Brush-border membrane vesicles (BBMVs) were prepared from combined duodenum, jejunum, and upper ileum by a Ca++precipitation method (PEERCE). The intestines of 5 male Wistar rats, 200-250 g, were rinsed with ice cold 0.9% Nacl and freed of mucos, the mucosa was scraped off the luminal surface with glass slides and put immediately into buffer containing […] Kcl and 10 mM Tris-HCl (pH 7.5, 4° C.) and the mixture homogenated by Ploytron (Polytron PT 1200, Kinematica AG, Switzerland). CaCl was added to a final concentration of 10 mM. The homogenate was left shaking for 30 min at 4° C. and afterwards centrifuged at 10,000 g for 10 min (centrifuge) the supernatant was then centrifuged at 48,000 g for 30 min an additional two purification steps were undertaken by suspending the pellet in 300 mM mannitol and 10 mM Hepes/Tris (pH 7.5) and centrifuge 24,000 g/hr. Purification of brush border membranes was assayed using the brush border membrane enzyme markers GGT, LAP and alkaline phosphatase. During the course of these studies, enrichment in brush border membrane enzymes varied between 13- and 18-fold.

ICR:Hsd (CD-1) male mice = assay: Effect of orally administered BBC-1 on food consumption in normal mice; format: in vivo
Experimental: ICR:Hsd (CD-1) male mice, 7-8 weeks old, were raised in separate cages and maintained at 23±1° C. on a 12-hr light, 12-hr dark cycle (0700-1900 hr light). Mice were allowed ad libitum access to water and standard chow pellets. Upon arrival mice were allowed to acclimate for 1 week. Following fasting for 16 hours, the animals (n=8) were subjected to a single oral gavage (PO, 5 ml/kg) of BBC1 (100 μg/ml, 1000 μg/ml) or vehicle (water). Immediately after administration, fixed food doses were added and re-weighed after 1, 2, 3, 4, 5, 8 and 24 hours.

MC4R [3] = target: T1, MC4R; assay: Determination of receptor activation (cAMP accumulation assay); format: cell-based
Experimental: cAMP Accumulation Assays: 48 h after transfection, CHO cells are washed once with PBS and then detached from the plate with PBS containing 0.02% EDTA (Sigma). The detached cells are harvested by centrifugation and resuspended in Hanks' balanced salt solution (Invitrogen) containing 0.5 mM IBMX, 2 mM HEPES, pH 7.5 (IBMX buffer). After incubation at 37° C. for 15 min to allow for IBMX uptake, 0.4 ml of cell suspension (5×10^5 cells/ml) is added to 0.1 ml of IBMX buffer containing various concentrations of agonists or 10 μM forskolin. The cells are subsequently incubated at 37° C. for 15 min to allow for cAMP accumulation. The activity is terminated by adding 0.5 ml of 5% trichloroacetic acid, and cAMP released from lysed cells is assayed by the cAMP ^125I scintillation proximity assay system (Amersham Biosciences).
EC50 values are calculated with a 95% confidence interval using GraphPad Prism software (using nonlinear regression analysis fitted with a sigmoidal dose-response curve with variable slope).

Row | Structure (SMILES) | IC50 (MC4R [1]) [nM] | other results
1 | N=C(N)NCCC[C@@H]1NC(=O)[C@@H](Cc2ccccc2)NC(=O)[C@H](Cc2ccccc2)NC(=O)CCC(=O)NCCN(CC(N)=O)C(=O)[C@H](Cc2c[nH]c3ccccc23)NC1=O [BBC1] (F[dF]RW[N(2-Aminoethyl)Gly]-NH2; linker N-5 via Suc) | 90 | intestinal metabolic stability [2]: high and enzymatically stable; food consumption (in words) (ICR:Hsd (CD-1) male mice; single oral administration, 24 hours): decreased food consumption; reduction of food consumption (ICR:Hsd (CD-1) male mice; single oral administration, over a period of 24 hr): ~40%; clinical signs post administration (ICR:Hsd (CD-1) male mice; single oral gavage, following 24 hours): did not show any special clinical signs; MC4R functionality and selectivity (MC4R [3]): highly functional and selective; also recorded: specific activation of MC4R
2 | N=C(N)NCCC[C@@H]1NC(=O)[C@@H](Cc2ccccc2)NC(=O)[C@H](Cc2ccccc2)NC(=O)CCCC(=O)NCCCN(CC(N)=O)C(=O)[C@H](Cc2c[nH]c3ccccc23)NC1=O [BBC6] (F[dF]RW[NGly(3-aminopropyl)]-NH2; linker N-5 via Glutaryl) | 110 | –
3 | N=C(N)NCCC[C@@H]1NC(=O)[C@@H](Cc2ccccc2)NC(=O)[C@H](Cc2ccccc2)NC(=O)CCCCCC(=O)NCCCN(CC(N)=O)C(=O)[C@H](Cc2c[nH]c3ccccc23)NC1=O [BBC7] (F[dF]RW[NGly(3-aminopropyl)]-NH2; linker N-5 via Heptanedioyl) | 100 | –
4 | N=C(N)NCCC[C@@H]1NC(=O)[C@@H](Cc2ccccc2)NC(=O)[C@H](Cc2ccccc2)NC(=O)CCC(=O)NCCCN(CC(N)=O)C(=O)[C@H](Cc2c[nH]c3ccccc23)NC1=O [BBC8] (F[dF]RW[NGly(3-aminopropyl)]-NH2; linker N-5 via Suc) | 60 | –
5 | N=C(N)NCCC[C@@H]1NC(=O)[C@@H](Cc2ccccc2)NC(=O)[C@H](Cc2ccccc2)NC(=O)CCCCCC(=O)NCCN(CC(N)=O)C(=O)[C@H](Cc2c[nH]c3ccccc23)NC1=O [BBC9] (F[dF]RW[N(2-Aminoethyl)Gly]-NH2; linker N-5 via Heptanedioyl) | 100 | –
6 | N=C(N)NCCC[C@@H]1NC(=O)[C@@H](Cc2ccccc2)NC(=O)[C@H](Cc2ccccc2)NC(=O)CCCCC(=O)NCCN(CC(N)=O)C(=O)[C@H](Cc2c[nH]c3ccccc23)NC1=O [BBC10] (F[dF]RW[N(2-Aminoethyl)Gly]-NH2; linker N-5 via Adipoyl) | 120 | –
7 | N=C(N)NCCC[C@@H]1NC(=O)[C@@H](Cc2ccccc2)NC(=O)[C@H](Cc2ccccc2)NC(=O)CCCC(=O)NCCCCN(CC(N)=O)C(=O)[C@H](Cc2c[nH]c3ccccc23)NC1=O [BBC12] (F[dF]RW[Nlys]-NH2; linker N-5 via Glutaryl) | 100 | –
8 | N=C(N)NCCC[C@@H]1NC(=O)[C@@H](Cc2ccccc2)NC(=O)[C@H](Cc2ccccc2)NC(=O)CCCCC(=O)NCCCCN(CC(N)=O)C(=O)[C@H](Cc2c[nH]c3ccccc23)NC1=O [BBC13] (F[dF]RW[Nlys]-NH2; linker N-5 via Adipoyl) | 100 | –
9 | N=C(N)NCCC[C@@H]1NC(=O)[C@@H](Cc2ccccc2)NC(=O)[C@H](Cc2ccccc2)NC(=O)CCCCC(=O)NCCCN(CC(N)=O)C(=O)[C@H](Cc2c[nH]c3ccccc23)NC1=O [BBC15] (F[dF]RW[NGly(3-aminopropyl)]-NH2; linker N-5 via Adipoyl) | 60 | –
